Reference: ChEMBL document CHEMBL3991601, “The target landscape of clinical kinase drugs” (Science, 2017)
pKd: −log10 of the molar value. Calls of active or inactive are those of the source.

Target: T1, UMP-CMP kinase (Homo sapiens, UniProt P30085)
T1 sequence (P30085 whole entry): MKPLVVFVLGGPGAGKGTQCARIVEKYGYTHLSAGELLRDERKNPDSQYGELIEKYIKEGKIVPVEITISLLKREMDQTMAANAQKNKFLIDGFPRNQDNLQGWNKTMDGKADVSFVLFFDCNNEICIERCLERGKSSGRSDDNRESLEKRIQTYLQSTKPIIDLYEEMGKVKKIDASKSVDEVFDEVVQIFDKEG
Conditions: not given
Note: in the data inactive means no Kd found up to 30 µM.

Structure (SMILES)	Kd
OCCn1cc(-c2cnc3nnn(Cc4ccc5ncccc5c4)c3n2)cn1 [PF-04217903]	> 30 µM (inactive)
C[C@@H]1CN(Cc2ccc(F)cc2)[C@@H](C)CN1C(=O)c1cc2c(C(=O)C(=O)N(C)C)cn(C)c2cc1Cl [TALMAPIMOD]	> 30 µM (inactive)

Target: Serine/threonine-protein kinase pim-2 (Homo sapiens, UniProt Q9P1W9)
Conditions: not given

Sequence of Serine/threonine-protein kinase pim-2 (Q9P1W9 whole entry): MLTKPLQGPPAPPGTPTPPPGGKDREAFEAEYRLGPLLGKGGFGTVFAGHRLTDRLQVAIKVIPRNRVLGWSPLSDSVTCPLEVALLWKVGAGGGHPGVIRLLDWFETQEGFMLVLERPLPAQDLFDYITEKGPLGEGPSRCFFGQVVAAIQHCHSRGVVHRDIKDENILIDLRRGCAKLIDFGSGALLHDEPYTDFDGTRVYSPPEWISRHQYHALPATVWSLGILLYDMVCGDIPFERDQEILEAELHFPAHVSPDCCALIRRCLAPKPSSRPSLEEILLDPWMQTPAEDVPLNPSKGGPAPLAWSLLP

Structure (SMILES)	Kd
Cc1c(F)cc(C(=O)NC2CC2)cc1-c1ccc(C(=O)NCC(C)(C)C)cn1 [LOSMAPIMOD]	> 30 µM (inactive)
OCCn1cc(-c2cnc3nnn(Cc4ccc5ncccc5c4)c3n2)cn1 [PF-04217903]	> 30 µM (inactive)
CNC(=O)CN1CCC(Oc2cc3c(Nc4cccc(Cl)c4F)ncnc3cc2OC)CC1 [SAPITINIB]	> 30 µM (inactive)

Target: T2, Ephrin type-A receptor 1 (Homo sapiens, UniProt P21709)
T2 sequence (P21709 whole entry): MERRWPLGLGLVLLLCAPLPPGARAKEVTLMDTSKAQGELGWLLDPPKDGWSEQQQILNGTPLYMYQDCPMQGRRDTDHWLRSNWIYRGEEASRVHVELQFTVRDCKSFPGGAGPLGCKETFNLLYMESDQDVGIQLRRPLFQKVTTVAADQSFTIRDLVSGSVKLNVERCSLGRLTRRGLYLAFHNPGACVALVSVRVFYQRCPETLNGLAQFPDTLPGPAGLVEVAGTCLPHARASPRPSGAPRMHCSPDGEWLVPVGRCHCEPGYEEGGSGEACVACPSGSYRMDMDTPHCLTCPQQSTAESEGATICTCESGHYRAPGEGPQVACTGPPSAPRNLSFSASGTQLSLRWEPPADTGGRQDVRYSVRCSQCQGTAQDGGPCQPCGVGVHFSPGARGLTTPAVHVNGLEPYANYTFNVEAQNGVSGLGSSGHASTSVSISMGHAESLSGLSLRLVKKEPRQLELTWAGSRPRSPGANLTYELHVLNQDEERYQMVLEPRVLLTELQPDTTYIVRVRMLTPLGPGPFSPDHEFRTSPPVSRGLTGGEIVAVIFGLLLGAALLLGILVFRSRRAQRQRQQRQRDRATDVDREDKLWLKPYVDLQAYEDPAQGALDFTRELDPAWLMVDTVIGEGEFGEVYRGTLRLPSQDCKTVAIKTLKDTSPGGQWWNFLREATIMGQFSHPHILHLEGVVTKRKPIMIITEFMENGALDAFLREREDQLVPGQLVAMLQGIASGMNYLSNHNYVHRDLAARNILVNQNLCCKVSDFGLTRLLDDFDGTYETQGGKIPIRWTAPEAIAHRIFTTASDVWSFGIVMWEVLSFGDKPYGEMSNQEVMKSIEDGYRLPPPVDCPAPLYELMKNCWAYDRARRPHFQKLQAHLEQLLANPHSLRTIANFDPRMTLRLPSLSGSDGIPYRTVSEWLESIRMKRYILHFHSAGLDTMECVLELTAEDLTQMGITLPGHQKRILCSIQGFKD
Conditions: not given

Structure (SMILES)	Kd	pKd
O=C1NC(=O)/C(=C/c2ccc3nccc(-c4ccncc4)c3c2)S1 [GSK-1059615]	> 30 µM (inactive)	–
Cc1c(F)cc(C(=O)NC2CC2)cc1-c1ccc(C(=O)NCC(C)(C)C)cn1 [LOSMAPIMOD]	> 30 µM (inactive)	–
OCCn1cc(-c2cnc3nnn(Cc4ccc5ncccc5c4)c3n2)cn1 [PF-04217903]	> 30 µM (inactive)	–
CNC(=O)CN1CCC(Oc2cc3c(Nc4cccc(Cl)c4F)ncnc3cc2OC)CC1 [SAPITINIB]	–	7.82
C[C@@H]1CN(Cc2ccc(F)cc2)[C@@H](C)CN1C(=O)c1cc2c(C(=O)C(=O)N(C)C)cn(C)c2cc1Cl [TALMAPIMOD]	> 30 µM (inactive)	–

Target: Membrane-associated progesterone receptor component 1 (Homo sapiens, UniProt O00264)
Conditions: not given

Sequence of Membrane-associated progesterone receptor component 1 (O00264 whole entry): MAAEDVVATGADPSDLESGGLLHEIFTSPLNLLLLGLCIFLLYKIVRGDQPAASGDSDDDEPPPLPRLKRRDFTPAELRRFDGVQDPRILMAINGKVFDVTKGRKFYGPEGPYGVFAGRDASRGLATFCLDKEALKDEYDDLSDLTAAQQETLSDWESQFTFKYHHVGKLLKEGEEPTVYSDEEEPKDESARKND

Structure (SMILES)	Kd
O=C1NC(=O)/C(=C/c2ccc3nccc(-c4ccncc4)c3c2)S1 [GSK-1059615]	> 30 µM (inactive)
OCCn1cc(-c2cnc3nnn(Cc4ccc5ncccc5c4)c3n2)cn1 [PF-04217903]	> 30 µM (inactive)
CNC(=O)CN1CCC(Oc2cc3c(Nc4cccc(Cl)c4F)ncnc3cc2OC)CC1 [SAPITINIB]	> 30 µM (inactive)
C[C@@H]1CN(Cc2ccc(F)cc2)[C@@H](C)CN1C(=O)c1cc2c(C(=O)C(=O)N(C)C)cn(C)c2cc1Cl [TALMAPIMOD]	> 30 µM (inactive)

Target: Serine/threonine-protein kinase PAK 6 (Homo sapiens, UniProt Q9NQU5)
Conditions: not given

Sequence of Serine/threonine-protein kinase PAK 6 (Q9NQU5 whole entry): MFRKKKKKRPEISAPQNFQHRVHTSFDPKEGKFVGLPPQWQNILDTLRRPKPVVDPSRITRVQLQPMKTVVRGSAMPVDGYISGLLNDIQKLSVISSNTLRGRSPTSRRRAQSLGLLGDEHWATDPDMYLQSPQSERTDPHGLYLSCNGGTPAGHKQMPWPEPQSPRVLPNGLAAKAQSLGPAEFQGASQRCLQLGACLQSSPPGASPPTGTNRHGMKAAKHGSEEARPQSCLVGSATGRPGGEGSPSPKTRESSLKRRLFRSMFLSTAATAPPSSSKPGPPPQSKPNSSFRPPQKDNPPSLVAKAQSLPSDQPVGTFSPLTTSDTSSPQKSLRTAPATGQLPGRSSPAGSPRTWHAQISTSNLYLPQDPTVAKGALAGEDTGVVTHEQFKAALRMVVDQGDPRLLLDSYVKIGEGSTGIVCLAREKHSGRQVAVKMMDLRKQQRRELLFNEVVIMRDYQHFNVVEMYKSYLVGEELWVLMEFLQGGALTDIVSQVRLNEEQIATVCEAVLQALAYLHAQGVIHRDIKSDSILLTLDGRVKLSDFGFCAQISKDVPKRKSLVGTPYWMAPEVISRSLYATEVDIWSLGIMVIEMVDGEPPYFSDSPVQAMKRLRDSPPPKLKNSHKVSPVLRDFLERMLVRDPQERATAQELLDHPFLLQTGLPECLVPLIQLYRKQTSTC

Structure (SMILES)	Kd
O=C1NC(=O)/C(=C/c2ccc3nccc(-c4ccncc4)c3c2)S1 [GSK-1059615]	> 30 µM (inactive)
OCCn1cc(-c2cnc3nnn(Cc4ccc5ncccc5c4)c3n2)cn1 [PF-04217903]	> 30 µM (inactive)
CNC(=O)CN1CCC(Oc2cc3c(Nc4cccc(Cl)c4F)ncnc3cc2OC)CC1 [SAPITINIB]	> 30 µM (inactive)
C[C@@H]1CN(Cc2ccc(F)cc2)[C@@H](C)CN1C(=O)c1cc2c(C(=O)C(=O)N(C)C)cn(C)c2cc1Cl [TALMAPIMOD]	> 30 µM (inactive)

Target: Serine/threonine-protein kinase 38-like (Homo sapiens, UniProt Q9Y2H1)
Conditions: not given

Sequence of Serine/threonine-protein kinase 38-like (Q9Y2H1 whole entry): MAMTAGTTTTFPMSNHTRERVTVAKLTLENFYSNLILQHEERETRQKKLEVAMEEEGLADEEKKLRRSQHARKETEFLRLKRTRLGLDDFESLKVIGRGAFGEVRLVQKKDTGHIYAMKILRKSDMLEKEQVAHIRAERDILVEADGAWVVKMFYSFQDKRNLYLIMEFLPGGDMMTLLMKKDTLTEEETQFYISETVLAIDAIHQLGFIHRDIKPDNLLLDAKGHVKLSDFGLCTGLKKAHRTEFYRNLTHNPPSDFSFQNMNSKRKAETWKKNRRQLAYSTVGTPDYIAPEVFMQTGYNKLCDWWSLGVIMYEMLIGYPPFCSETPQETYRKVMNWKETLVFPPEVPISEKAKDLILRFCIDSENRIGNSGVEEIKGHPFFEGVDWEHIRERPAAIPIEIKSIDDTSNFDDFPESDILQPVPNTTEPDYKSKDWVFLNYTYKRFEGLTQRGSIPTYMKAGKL

Structure (SMILES)	Kd
O=C1NC(=O)/C(=C/c2ccc3nccc(-c4ccncc4)c3c2)S1 [GSK-1059615]	> 30 µM (inactive)
Cc1c(F)cc(C(=O)NC2CC2)cc1-c1ccc(C(=O)NCC(C)(C)C)cn1 [LOSMAPIMOD]	> 30 µM (inactive)
OCCn1cc(-c2cnc3nnn(Cc4ccc5ncccc5c4)c3n2)cn1 [PF-04217903]	> 30 µM (inactive)
CNC(=O)CN1CCC(Oc2cc3c(Nc4cccc(Cl)c4F)ncnc3cc2OC)CC1 [SAPITINIB]	> 30 µM (inactive)
C[C@@H]1CN(Cc2ccc(F)cc2)[C@@H](C)CN1C(=O)c1cc2c(C(=O)C(=O)N(C)C)cn(C)c2cc1Cl [TALMAPIMOD]	> 30 µM (inactive)

Target: Ephrin type-A receptor 7 (Homo sapiens, UniProt Q15375)
Conditions: not given

Structure (SMILES)	Kd
O=C1NC(=O)/C(=C/c2ccc3nccc(-c4ccncc4)c3c2)S1 [GSK-1059615]	> 30 µM (inactive)
Cc1c(F)cc(C(=O)NC2CC2)cc1-c1ccc(C(=O)NCC(C)(C)C)cn1 [LOSMAPIMOD]	> 30 µM (inactive)
OCCn1cc(-c2cnc3nnn(Cc4ccc5ncccc5c4)c3n2)cn1 [PF-04217903]	> 30 µM (inactive)
CNC(=O)CN1CCC(Oc2cc3c(Nc4cccc(Cl)c4F)ncnc3cc2OC)CC1 [SAPITINIB]	> 30 µM (inactive)
C[C@@H]1CN(Cc2ccc(F)cc2)[C@@H](C)CN1C(=O)c1cc2c(C(=O)C(=O)N(C)C)cn(C)c2cc1Cl [TALMAPIMOD]	> 30 µM (inactive)

Target: High affinity nerve growth factor receptor (Homo sapiens, UniProt P04629)
Conditions: not given

Sequence of High affinity nerve growth factor receptor (P04629 whole entry): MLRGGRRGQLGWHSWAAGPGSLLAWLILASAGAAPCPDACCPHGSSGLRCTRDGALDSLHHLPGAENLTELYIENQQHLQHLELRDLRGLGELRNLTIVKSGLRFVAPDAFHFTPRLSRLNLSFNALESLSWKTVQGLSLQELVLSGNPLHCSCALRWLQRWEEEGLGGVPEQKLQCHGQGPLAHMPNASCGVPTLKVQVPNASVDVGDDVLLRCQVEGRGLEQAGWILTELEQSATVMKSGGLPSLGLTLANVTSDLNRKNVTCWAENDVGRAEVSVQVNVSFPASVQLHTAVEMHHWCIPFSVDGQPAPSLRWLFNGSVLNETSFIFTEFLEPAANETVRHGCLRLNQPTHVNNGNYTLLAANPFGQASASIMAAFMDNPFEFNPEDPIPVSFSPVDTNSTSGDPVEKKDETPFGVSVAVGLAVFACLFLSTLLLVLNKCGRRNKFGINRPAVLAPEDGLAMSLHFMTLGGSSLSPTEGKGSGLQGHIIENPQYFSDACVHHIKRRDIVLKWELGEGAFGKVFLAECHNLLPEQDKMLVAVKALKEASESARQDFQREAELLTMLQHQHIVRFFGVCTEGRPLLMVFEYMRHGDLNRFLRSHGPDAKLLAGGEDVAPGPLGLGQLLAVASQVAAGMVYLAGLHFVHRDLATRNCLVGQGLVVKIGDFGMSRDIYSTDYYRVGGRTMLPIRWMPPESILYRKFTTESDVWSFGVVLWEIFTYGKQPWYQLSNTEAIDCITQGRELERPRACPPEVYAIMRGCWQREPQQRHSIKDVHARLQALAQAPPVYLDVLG

Structure (SMILES)	Kd
O=C1NC(=O)/C(=C/c2ccc3nccc(-c4ccncc4)c3c2)S1 [GSK-1059615]	> 30 µM (inactive)
Cc1c(F)cc(C(=O)NC2CC2)cc1-c1ccc(C(=O)NCC(C)(C)C)cn1 [LOSMAPIMOD]	> 30 µM (inactive)
CNC(=O)CN1CCC(Oc2cc3c(Nc4cccc(Cl)c4F)ncnc3cc2OC)CC1 [SAPITINIB]	> 30 µM (inactive)
C[C@@H]1CN(Cc2ccc(F)cc2)[C@@H](C)CN1C(=O)c1cc2c(C(=O)C(=O)N(C)C)cn(C)c2cc1Cl [TALMAPIMOD]	> 30 µM (inactive)

Target: Dual specificity testis-specific protein kinase 1 (Homo sapiens, UniProt Q15569)
Conditions: not given

Sequence of Dual specificity testis-specific protein kinase 1 (Q15569 whole entry): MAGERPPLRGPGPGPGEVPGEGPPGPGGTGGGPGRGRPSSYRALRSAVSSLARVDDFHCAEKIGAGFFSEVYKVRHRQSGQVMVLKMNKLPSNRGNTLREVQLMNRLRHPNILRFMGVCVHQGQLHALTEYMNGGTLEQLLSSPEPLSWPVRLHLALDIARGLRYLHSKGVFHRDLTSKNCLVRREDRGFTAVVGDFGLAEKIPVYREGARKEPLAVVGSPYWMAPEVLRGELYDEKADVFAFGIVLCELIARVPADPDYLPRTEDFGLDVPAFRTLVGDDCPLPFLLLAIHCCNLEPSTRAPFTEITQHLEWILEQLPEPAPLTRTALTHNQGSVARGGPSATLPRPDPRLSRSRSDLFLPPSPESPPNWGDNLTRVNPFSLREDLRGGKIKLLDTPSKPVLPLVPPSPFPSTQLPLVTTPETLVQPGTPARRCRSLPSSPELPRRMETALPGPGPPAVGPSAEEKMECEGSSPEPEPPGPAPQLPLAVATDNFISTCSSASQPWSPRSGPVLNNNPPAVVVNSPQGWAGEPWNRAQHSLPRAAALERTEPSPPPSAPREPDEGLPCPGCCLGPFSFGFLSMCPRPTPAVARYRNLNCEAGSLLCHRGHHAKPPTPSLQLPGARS

Structure (SMILES)	Kd
O=C1NC(=O)/C(=C/c2ccc3nccc(-c4ccncc4)c3c2)S1 [GSK-1059615]	> 30 µM (inactive)
Cc1c(F)cc(C(=O)NC2CC2)cc1-c1ccc(C(=O)NCC(C)(C)C)cn1 [LOSMAPIMOD]	> 30 µM (inactive)
OCCn1cc(-c2cnc3nnn(Cc4ccc5ncccc5c4)c3n2)cn1 [PF-04217903]	> 30 µM (inactive)
CNC(=O)CN1CCC(Oc2cc3c(Nc4cccc(Cl)c4F)ncnc3cc2OC)CC1 [SAPITINIB]	> 30 µM (inactive)
C[C@@H]1CN(Cc2ccc(F)cc2)[C@@H](C)CN1C(=O)c1cc2c(C(=O)C(=O)N(C)C)cn(C)c2cc1Cl [TALMAPIMOD]	> 30 µM (inactive)

Target: Dual specificity protein kinase CLK3 (Homo sapiens, UniProt P49761)
Assay type: subcellular, K-562, COLO 205, SK-N-BE(2) and MV-4-11, Cell lysate
Conditions: read-out: Kd apparent

Sequence of Dual specificity protein kinase CLK3 (P49761 whole entry): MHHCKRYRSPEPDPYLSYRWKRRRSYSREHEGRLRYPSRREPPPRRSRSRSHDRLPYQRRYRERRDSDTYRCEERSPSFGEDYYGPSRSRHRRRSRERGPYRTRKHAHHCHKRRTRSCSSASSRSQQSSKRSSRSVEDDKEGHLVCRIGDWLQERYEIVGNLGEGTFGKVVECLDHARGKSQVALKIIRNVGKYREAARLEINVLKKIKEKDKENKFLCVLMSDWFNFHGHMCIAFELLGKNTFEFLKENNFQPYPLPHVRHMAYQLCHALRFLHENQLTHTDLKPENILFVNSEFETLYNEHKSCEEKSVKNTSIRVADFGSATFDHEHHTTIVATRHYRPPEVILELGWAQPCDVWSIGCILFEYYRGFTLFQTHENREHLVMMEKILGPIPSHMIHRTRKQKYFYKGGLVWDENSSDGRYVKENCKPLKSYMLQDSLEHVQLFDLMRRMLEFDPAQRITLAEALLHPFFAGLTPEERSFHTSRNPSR

Structure (SMILES)	Kd
O=C1NC(=O)/C(=C/c2ccc3nccc(-c4ccncc4)c3c2)S1 [GSK-1059615]	> 30 µM (inactive)
Cc1c(F)cc(C(=O)NC2CC2)cc1-c1ccc(C(=O)NCC(C)(C)C)cn1 [LOSMAPIMOD]	> 30 µM (inactive)
OCCn1cc(-c2cnc3nnn(Cc4ccc5ncccc5c4)c3n2)cn1 [PF-04217903]	> 30 µM (inactive)
CNC(=O)CN1CCC(Oc2cc3c(Nc4cccc(Cl)c4F)ncnc3cc2OC)CC1 [SAPITINIB]	> 30 µM (inactive)
C[C@@H]1CN(Cc2ccc(F)cc2)[C@@H](C)CN1C(=O)c1cc2c(C(=O)C(=O)N(C)C)cn(C)c2cc1Cl [TALMAPIMOD]	> 30 µM (inactive)

Target: Cell division cycle 7-related protein kinase (Homo sapiens, UniProt O00311)
Conditions: not given

Sequence of Cell division cycle 7-related protein kinase (O00311 whole entry): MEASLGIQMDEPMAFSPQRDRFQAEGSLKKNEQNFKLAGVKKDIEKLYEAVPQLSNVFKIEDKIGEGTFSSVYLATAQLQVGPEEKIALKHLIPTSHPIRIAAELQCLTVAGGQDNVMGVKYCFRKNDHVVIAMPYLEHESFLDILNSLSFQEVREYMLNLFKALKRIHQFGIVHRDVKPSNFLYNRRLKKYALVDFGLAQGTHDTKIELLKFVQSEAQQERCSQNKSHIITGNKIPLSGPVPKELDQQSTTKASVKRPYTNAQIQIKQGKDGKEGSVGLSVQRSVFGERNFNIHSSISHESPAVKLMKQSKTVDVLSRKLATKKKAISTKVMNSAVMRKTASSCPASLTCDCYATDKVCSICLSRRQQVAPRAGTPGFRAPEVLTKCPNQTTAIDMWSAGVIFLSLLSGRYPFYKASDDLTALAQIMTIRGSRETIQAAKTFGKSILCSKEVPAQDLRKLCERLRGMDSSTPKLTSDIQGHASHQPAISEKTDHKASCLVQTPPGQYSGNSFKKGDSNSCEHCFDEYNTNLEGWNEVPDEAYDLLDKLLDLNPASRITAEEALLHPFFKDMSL

Structure (SMILES)	Kd
O=C1NC(=O)/C(=C/c2ccc3nccc(-c4ccncc4)c3c2)S1 [GSK-1059615]	> 30 µM (inactive)
OCCn1cc(-c2cnc3nnn(Cc4ccc5ncccc5c4)c3n2)cn1 [PF-04217903]	> 30 µM (inactive)
CNC(=O)CN1CCC(Oc2cc3c(Nc4cccc(Cl)c4F)ncnc3cc2OC)CC1 [SAPITINIB]	> 30 µM (inactive)
C[C@@H]1CN(Cc2ccc(F)cc2)[C@@H](C)CN1C(=O)c1cc2c(C(=O)C(=O)N(C)C)cn(C)c2cc1Cl [TALMAPIMOD]	> 30 µM (inactive)

Target: T3, Inhibitor of nuclear factor kappa-B kinase subunit epsilon (Homo sapiens, UniProt Q14164)
T3 sequence (Q14164 whole entry): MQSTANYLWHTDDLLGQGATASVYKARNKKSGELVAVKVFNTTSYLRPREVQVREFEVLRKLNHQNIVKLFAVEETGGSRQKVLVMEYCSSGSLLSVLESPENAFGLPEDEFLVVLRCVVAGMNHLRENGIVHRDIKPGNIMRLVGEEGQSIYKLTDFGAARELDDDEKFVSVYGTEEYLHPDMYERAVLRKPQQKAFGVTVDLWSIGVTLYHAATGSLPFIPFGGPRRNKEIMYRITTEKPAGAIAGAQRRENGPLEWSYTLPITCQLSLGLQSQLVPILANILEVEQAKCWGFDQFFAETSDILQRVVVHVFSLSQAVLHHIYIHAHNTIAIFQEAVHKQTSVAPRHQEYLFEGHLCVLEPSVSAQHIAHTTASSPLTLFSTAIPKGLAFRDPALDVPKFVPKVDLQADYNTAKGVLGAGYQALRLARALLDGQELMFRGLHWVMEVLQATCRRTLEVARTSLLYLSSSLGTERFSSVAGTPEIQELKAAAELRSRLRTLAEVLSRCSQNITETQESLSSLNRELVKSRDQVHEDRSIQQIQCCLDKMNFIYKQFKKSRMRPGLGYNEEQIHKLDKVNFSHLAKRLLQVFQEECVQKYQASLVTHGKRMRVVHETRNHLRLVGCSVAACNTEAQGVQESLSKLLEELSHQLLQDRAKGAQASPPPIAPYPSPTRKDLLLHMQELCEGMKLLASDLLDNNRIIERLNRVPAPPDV
Conditions: not given

Structure (SMILES)	Kd
O=C1NC(=O)/C(=C/c2ccc3nccc(-c4ccncc4)c3c2)S1 [GSK-1059615]	> 30 µM (inactive)
CNC(=O)CN1CCC(Oc2cc3c(Nc4cccc(Cl)c4F)ncnc3cc2OC)CC1 [SAPITINIB]	> 30 µM (inactive)
C[C@@H]1CN(Cc2ccc(F)cc2)[C@@H](C)CN1C(=O)c1cc2c(C(=O)C(=O)N(C)C)cn(C)c2cc1Cl [TALMAPIMOD]	> 30 µM (inactive)

Target: Hepatocyte growth factor receptor (Homo sapiens, UniProt P08581)
Conditions: not given

Structure (SMILES)	Kd
O=C1NC(=O)/C(=C/c2ccc3nccc(-c4ccncc4)c3c2)S1 [GSK-1059615]	> 30 µM (inactive)
CNC(=O)CN1CCC(Oc2cc3c(Nc4cccc(Cl)c4F)ncnc3cc2OC)CC1 [SAPITINIB]	> 30 µM (inactive)
C[C@@H]1CN(Cc2ccc(F)cc2)[C@@H](C)CN1C(=O)c1cc2c(C(=O)C(=O)N(C)C)cn(C)c2cc1Cl [TALMAPIMOD]	> 30 µM (inactive)
